pIC50: −log10 of the molar value. A value given as a limit tells only on which side of the number the result lay.

For the test, the target named is T1, Fructose-1,6-bisphosphatase 1 (Mus musculus, UniProt Q9QXD6).
T1 sequence (Q9QXD6 whole entry): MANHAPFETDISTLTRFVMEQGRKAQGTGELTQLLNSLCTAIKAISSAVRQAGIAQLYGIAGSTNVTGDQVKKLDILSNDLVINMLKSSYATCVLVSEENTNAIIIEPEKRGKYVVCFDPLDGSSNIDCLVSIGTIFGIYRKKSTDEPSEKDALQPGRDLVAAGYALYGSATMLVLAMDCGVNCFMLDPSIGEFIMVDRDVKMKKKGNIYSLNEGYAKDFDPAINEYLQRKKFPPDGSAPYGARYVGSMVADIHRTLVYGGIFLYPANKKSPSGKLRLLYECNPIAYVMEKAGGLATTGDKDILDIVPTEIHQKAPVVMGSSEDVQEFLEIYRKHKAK
The test can be described thus: Inhibition of fructose-1,6-bisphosphatase in mouse liver homogenates by colorimetric phosphate assay. In kind it is tissue-based.
By pIC50 is commonly meant −log10 of the IC50, conventionally taken in molar units. The low end stands for a high IC50, the high end for a low IC50. Consider `O=[N+]([O-])c1ccc(S(=O)(=O)n2cccc2)cc1`, for which the pIC50 was 3.96. To `COC(=O)c1ccc2[nH]c3ccccc3c2c1` belongs less than 3.52. `CCOC(=O)C(O)(c1c[nH]c2ccc(I)cc12)C(F)(F)F` (stereo not drawn) showed a pIC50 of 4.88. As for `O=S(=O)(c1ccccc1)n1cccc1`, the pIC50 is 4.12.

Turning to `O=[N+]([O-])c1ccc(S(=O)(=O)n2c3ccccc3c3ccccc32)cc1`, the negative logarithm of the IC50 (pIC50) is 3.75. Consider `COc1ccc(S(=O)(=O)n2c3ccccc3c3ccccc32)cc1`, for which the pIC50 was less than 3.60. For the compound `Fc1ccc(-c2cc(-c3ccc(F)cc3)n(-c3cccc(C(F)(F)F)c3)n2)cc1`, the pIC50 was 4.12. With `COc1ccc(S(=O)(=O)n2ccc3ccccc32)cc1`, the pIC50 is less than 3.52. On to `CCOC(=O)CC(O)(c1[nH]c(C)cc1C)C(F)(F)F` (stereo not drawn), for which the pIC50 was 5.32. Compound `COc1ccc2[nH]c3c(C)ccc(C)c3c2c1` had a pIC50 of less than 3.52. In the case of `O=[N+]([O-])c1ccc(-n2nc(-c3ccccc3)cc2-c2ccccc2)cc1`, the pIC50 was less than 3.52. Turning to `O=S(=O)(c1ccc2ccccc2c1)n1ccc2ccccc21`, the pIC50 is less than 3.52. Consider `FC(F)(F)c1cccc(-n2nc(-c3ccccc3)cc2-c2ccccc2)c1`, for which the pIC50 was 5.22. Next, `O=C(c1ccc(F)cc1)n1ccc2ccccc21`: 3.89; `Fc1ccc(-c2cc(-c3ccc(F)cc3)n(-c3ccccc3)n2)cc1`: 3.82; `O=C(c1ccc(C(F)(F)F)cc1)n1ccc2ccccc21`: 5.51. Take `CCOC(=O)C(O)(c1ccc[nH]1)C(F)(F)F` (stereo not drawn): the pIC50 was 4.59. For the compound `COc1ccc(S(=O)(=O)n2cccc2)cc1`, the negative-log IC50 (pIC50) is 3.61.

`CCOC(=O)CC(O)(c1cccn1C)C(F)(F)F` (stereo not drawn) showed a pIC50 of 4.38. Regarding `CCOC(=O)C(O)(c1cn(C)c2ccccc12)C(F)(F)F` (stereo not drawn), the pIC50 is 4.93.

`Cc1ccc(S(=O)(=O)n2cccc2)cc1`: the pIC50 is less than 3.52. For `O=S(=O)(c1ccc2ccccc2c1)n1c2ccccc2c2ccccc21`, the negative logarithm of the IC50 (pIC50) was less than 3.52. In the case of `CCOC(=O)CC(O)(c1ccc[nH]1)C(F)(F)F` (stereo not drawn), the pIC50 was 4.59. In the case of `O=[N+]([O-])c1ccc(S(=O)(=O)n2ccc3ccccc32)cc1`, the pIC50 is 3.73. As for `Cc1ccccc1S(=O)(=O)n1cccc1`, the pIC50 is less than 3.60. For the compound `CCOC(=O)C(O)(c1c[nH]c2ccc(C)cc12)C(F)(F)F` (stereo not drawn), the pIC50 is 4.44. In turn, `O=C(c1ccc([N+](=O)[O-])cc1)n1ccc2ccccc21` showed a pIC50 of less than 3.52. The compound `O=S(=O)(c1ccccc1)n1ccc2ccccc21` gave a pIC50 of 3.92.

For the origin of these results see ChEMBL document CHEMBL1143383, “Novel heteroaromatic organofluorine inhibitors of fructose-1,6-bisphosphatase” (J Med Chem, 2009).
